One block for each molecule: values may come before it.
Key:
Assay type in all cases: cell-based
HepG2 cells = assay: MTT assay in HepG2 cells; settings: compounds tested at 10 μM; normalized with OD570-650 of vehicle treatment; in % (unit assumed)
TLR4/MD-2/CD14 = target: T1, TLR4/MD-2/CD14 (Homo sapiens, UniProt O00206+Q9Y6Y9); assay: hTLR4 HEK Blue reporter cells, NF-κB SEAP secretion (QuantiBlue OD630); settings: for hTLR4 0.5 μM: Quantiblue OD630 of hTLR4 HEK Blue cells, normalized to LPS positive control=100; for Activity relative to compound 1a (SAR in words): TLR4 reporter cells and hPBMC
T1 construct: host or cells: HEK293 (HEK Blue hTLR4)
T1 sequence (O00206 24-839): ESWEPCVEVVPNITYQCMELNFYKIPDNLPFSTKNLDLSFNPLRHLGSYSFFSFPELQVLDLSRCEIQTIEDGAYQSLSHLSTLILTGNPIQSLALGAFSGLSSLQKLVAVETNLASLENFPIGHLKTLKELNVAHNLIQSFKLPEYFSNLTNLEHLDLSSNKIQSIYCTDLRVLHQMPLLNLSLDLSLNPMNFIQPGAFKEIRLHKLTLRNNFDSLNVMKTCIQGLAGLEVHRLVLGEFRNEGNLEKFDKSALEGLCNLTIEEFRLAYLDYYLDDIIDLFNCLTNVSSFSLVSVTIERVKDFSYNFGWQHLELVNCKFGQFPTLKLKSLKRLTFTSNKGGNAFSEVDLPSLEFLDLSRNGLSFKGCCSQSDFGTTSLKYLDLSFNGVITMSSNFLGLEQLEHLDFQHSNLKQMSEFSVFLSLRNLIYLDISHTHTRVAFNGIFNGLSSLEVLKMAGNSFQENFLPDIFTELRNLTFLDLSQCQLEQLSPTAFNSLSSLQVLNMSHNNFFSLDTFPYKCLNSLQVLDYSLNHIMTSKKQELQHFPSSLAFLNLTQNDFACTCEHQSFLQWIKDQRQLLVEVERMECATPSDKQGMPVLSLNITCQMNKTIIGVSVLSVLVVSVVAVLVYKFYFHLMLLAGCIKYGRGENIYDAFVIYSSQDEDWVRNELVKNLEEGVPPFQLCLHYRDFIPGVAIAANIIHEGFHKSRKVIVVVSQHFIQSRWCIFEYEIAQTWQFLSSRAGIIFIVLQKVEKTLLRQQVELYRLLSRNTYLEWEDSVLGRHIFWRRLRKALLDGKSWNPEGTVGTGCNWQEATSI
T1 sequence (Q9Y6Y9 19-160): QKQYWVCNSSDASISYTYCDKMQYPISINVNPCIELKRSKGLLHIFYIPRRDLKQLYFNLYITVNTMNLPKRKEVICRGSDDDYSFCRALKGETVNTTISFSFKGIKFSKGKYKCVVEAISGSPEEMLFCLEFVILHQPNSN
Procedure: In vitro assays using TLR reporter cell lines. Murine or humanTLR4 HEK Blue™ cells (Invivogen, 2.5×10^4 cells per well of a 96 well plate), or NF-κB/SEAPorter™ HEK 293 cells (Imgenex, San Diego, Calif.) for human TLR2, TLR3, TLR5, TLR7, TLR8, or TLR9 (5×10^4 cells per well of 96 well plate) were incubated with graded doses of the test compound. The culture supernatants were harvested after a 20-24 h incubation period. Secreted alkaline phosphatase (SEAP) activity in the supernatants was determined by a colorimetric assay, using either the SEAPorter Assay Kit (Imgenex, San Diego, Calif.), with absorbance read at 405 nm, or QuantiBlue (Invivogen), with absorbance read at 630 nm. In some experiments, graded concentrations of LPS-RS ([…], Invivogen) were used to test TLR4-specific binding of the hit compound.

human PBMC = assay: IL-8 release in human PBMC (ELISA); settings: Homo sapiens, PBMC, 18 h; 0.5 μM; IL-8 release, normalized to LPS positive control=100
Procedure: In vitro activities in human peripheral blood mononuclear cells (PBMC). Human PBMC were isolated from buffy coats obtained from the San Diego Blood Bank (San Diego, Calif.) as described previously.^5,6 PBMC (1×10^6/mL) were incubated with various compounds in complete RPMI (Omega Scientific) for 18 h at 37° C., 5% CO2 and culture supernatants were collected. The levels of IL-8 in the supernatants were determined by ELISA (BD Biosciences).

human TLR4/MD-2 = target: T2, human TLR4/MD-2 (Homo sapiens, UniProt O00206+Q9Y6Y9); assay: BMDM from transgenic mice expressing human TLR4/MD-2 (IL-6, IP-10); settings: BMDM from human TLR4/MD-2 transgenic mice deficient for murine TLR4/MD-2
T2 construct: expressed in transfected cells; host or cells: bone marrow derived macrophages of human TLR4 transgenic mice on a murine TLR4/MD-2 null C57BL/6 background (gift of Dr. L. Hajjar)
T2 sequence (O00206 24-839): as the sequence (O00206 24-839) above
T2 sequence (Q9Y6Y9 19-160): as the sequence (Q9Y6Y9 19-160) above
From the text: Animals. Seven to 9 week-old C57BL/6 (wild type, WT) and Cd14^−/− (C57BL/6 background) mice were purchased from the Jackson Laboratories (Bar Harbor, Mass.). Tlr4^−/− mice (C57BL/6 background) were a gift from Dr. Shizuo Akira (Osaka University, Japan) and were backcrossed for 10 generations onto the C57BL/6 background at University of California, San Diego (UCSD). MD-2^−/− mice (C57BL/6 background) were originally generated by Dr. K. Miyake (University of Tokyo, Tokyo, Japan) and were kindly provided by Dr. L. Hajjar (University of Washington, Seattle, Wash.). Human TLR4 transgenic mice on murine TLR4/MD-2 null C57BL/6 background were kindly provided by Dr. L. Hajjar.^3 All animal experiments were approved by the UCSD Institutional Animal Care and Use Committee.
In vitro cytokine induction in bone marrow derived dendritic cells (BMDC) and macrophages (BMDM). […] The levels of IL-6 or IP-10 in the culture supernatants were determined by ELISA (BD Biosciences, La Jolla, Calif.).^5 Finally, all levels of cytokine release were normalized to those of LPSstimulation within each experiment, set at 100.

HepG2 MT (HepG2 cells): 106.1
hTLR4 0.5 μM (TLR4/MD-2/CD14): 0.6
Activity relative to compound 1a (SAR in words) (TLR4/MD-2/CD14): complete loss of activity
Compound: CCOC(=O)c1nc(Nc2cc(N)cc(Oc3ccccc3)c2)c2ccccc2n1 [Compound 5a, Ethyl 4-((3-amino-5-phenoxyphenyl)amino)quinazoline-2-carboxylate]
IL-8 release (% of LPS control) at 0.5 µM (human PBMC): 0.3%

HepG2 MT (HepG2 cells): 105.0
hTLR4 0.5 μM (TLR4/MD-2/CD14): 1.1
Compound: Nc1cc(Nc2nc(C(=O)O)nc3ccccc23)cc(Oc2ccccc2)c1 [Compound 6a, 4-((3-Amino-5-phenoxyphenyl)amino)quinazoline-2-carboxylic acid]
IL-8 release (% of LPS control) at 0.5 µM (human PBMC): 0.3%

HepG2 MT (HepG2 cells): 84.5
hTLR4 0.5 μM (TLR4/MD-2/CD14): 0.6
Compound: O=C(O)c1nc(Nc2cc(Oc3ccccc3)cc([N+](=O)[O-])c2)c2ccccc2n1 [Compound 7a, 4-((3-Nitro-5-phenoxyphenyl)amino)quinazoline-2-carboxylic acid]
IL-8 release (% of LPS control) at 0.5 µM (human PBMC): 0.5%

HepG2 MT (HepG2 cells): 96.3
hTLR4 0.5 μM (TLR4/MD-2/CD14): 1.6
Compound: O=C(O)c1nc(Nc2cc(Oc3ccccc3Br)cc([N+](=O)[O-])c2)c2ccccc2n1 [Compound 7g, 4-((3-(2-Bromophenoxy)-5-nitrophenyl)amino)quinazoline-2-carboxylic acid]
IL-8 release (% of LPS control) at 0.5 µM (human PBMC): 0%

HepG2 MT (HepG2 cells): 107.4
hTLR4 0.5 μM (TLR4/MD-2/CD14): 2.2
Compound: CCNC(=O)c1nc(Nc2cc(Oc3ccccc3)cc([N+](=O)[O-])c2)c2ccccc2n1 [Compound 8a, N-Ethyl-4-((3-nitro-5-phenoxyphenyl)amino)quinazoline-2-carboxamide]
IL-8 release (% of LPS control) at 0.5 µM (human PBMC): 1.5%

HepG2 MT (HepG2 cells): 78.4
hTLR4 0.5 μM (TLR4/MD-2/CD14): 0.0
Compound: NC(=O)c1nc(Nc2cc(Oc3ccccc3)cc([N+](=O)[O-])c2)c2ccccc2n1 [Compound 9a, 4-((3-nitro-5-phenoxyphenyl)amino)quinazoline-2-carboxamide]
IL-8 release (% of LPS control) at 0.5 µM (human PBMC): 0.3%

HepG2 MT (HepG2 cells): 116.4
hTLR4 0.5 μM (TLR4/MD-2/CD14): 0.4
Compound: COC(=O)c1nc(Nc2cc(Oc3ccccc3)cc([N+](=O)[O-])c2)c2ccccc2n1 [Compound 10a, Methyl 4-((3-nitro-5-phenoxyphenyl)amino)quinazoline-2-carboxylate]
IL-8 release (% of LPS control) at 0.5 µM (human PBMC): 0.2%

HepG2 MT (HepG2 cells): 65.6
hTLR4 0.5 μM (TLR4/MD-2/CD14): 7.4
Compound: CC(C)OC(=O)c1nc(Nc2cc(Oc3ccccc3)cc([N+](=O)[O-])c2)c2ccccc2n1 [Compound 11a, Isopropyl 4-((3-nitro-5-phenoxyphenyl)amino)quinazoline-2-carboxylate]
IL-8 release (% of LPS control) at 0.5 µM (human PBMC): 2.1%

HepG2 MT (HepG2 cells): 63.4
hTLR4 0.5 μM (TLR4/MD-2/CD14): 8.4
Compound: CC(C)CCOC(=O)c1nc(Nc2cc(Oc3ccccc3)cc([N+](=O)[O-])c2)c2ccccc2n1 [Compound 12a, Isopentyl 4-((3-nitro-5-phenoxyphenyl)amino)quinazoline-2-carboxylate]
IL-8 release (% of LPS control) at 0.5 µM (human PBMC): 2.2%

HepG2 MT (HepG2 cells): 106.5
hTLR4 0.5 μM (TLR4/MD-2/CD14): 67.8
Compound: CC(C)OC(=O)c1nc(Nc2cc(Oc3ccccc3Br)cc([N+](=O)[O-])c2)c2ccccc2n1 [Compound 13g, Isopropyl 4-((3-(2-bromophenoxy)-5-nitrophenyl)amino)quinazoline-2-carboxylate]
IL-8 release (% of LPS control) at 0.5 µM (human PBMC): 19.2%

More lines, now with the values behind:

Compound: CCOC(=O)c1nc(Nc2cc(Oc3ccccc3C)cc([N+](=O)[O-])c2)c2ccccc2n1 [Compound 1b, Ethyl 4-((3-nitro-5-(o-tolyloxy)phenyl)amino)quinazoline-2-carboxylate]
HepG2 MT (HepG2 cells): 96.7
hTLR4 0.5 μM (TLR4/MD-2/CD14): 45.5
Activity relative to compound 1a (SAR in words) (TLR4/MD-2/CD14): enhanced
IL-8 release (% of LPS control) at 0.5 µM (human PBMC): 20.5%

Compound: CCOC(=O)c1nc(Nc2cc(Oc3cccc(C)c3)cc([N+](=O)[O-])c2)c2ccccc2n1 [Compound 1c, Ethyl 4-((3-nitro-5-(m-tolyloxy)phenyl)amino)quinazoline-2-carboxylate]
HepG2 MT (HepG2 cells): 109.9
hTLR4 0.5 μM (TLR4/MD-2/CD14): 14.5
IL-8 release (% of LPS control) at 0.5 µM (human PBMC): 5.8%

Compound: CCOC(=O)c1nc(Nc2cc(Oc3ccc(C)cc3)cc([N+](=O)[O-])c2)c2ccccc2n1 [Compound 1d, Ethyl 4-((3-nitro-5-(p-tolyloxy)phenyl)amino)quinazoline-2-carboxylate]
HepG2 MT (HepG2 cells): 108.8
hTLR4 0.5 μM (TLR4/MD-2/CD14): 0.5
IL-8 release (% of LPS control) at 0.5 µM (human PBMC): 0.4%

Compound: CCOC(=O)c1nc(Nc2cc(Oc3ccccc3CC)cc([N+](=O)[O-])c2)c2ccccc2n1 [Compound 1e, Ethyl 4-((3-(2-ethylphenoxy)-5-nitrophenyl)amino)quinazoline-2-carboxylate]
HepG2 MT (HepG2 cells): 98.9
hTLR4 0.5 μM (TLR4/MD-2/CD14): 4.2
Activity relative to compound 1a (SAR in words) (TLR4/MD-2/CD14): substantial loss of activity
IL-8 release (% of LPS control) at 0.5 µM (human PBMC): 3.2%

Compound: CCOC(=O)c1nc(Nc2cc(Oc3ccccc3Cl)cc([N+](=O)[O-])c2)c2ccccc2n1 [Compound 1f, Ethyl 4-((3-(2-chlorophenoxy)-5-nitrophenyl)amino)quinazoline-2-carboxylate]
HepG2 MT (HepG2 cells): 107.4
hTLR4 0.5 μM (TLR4/MD-2/CD14): 73.9
Activity relative to compound 1a (SAR in words) (TLR4/MD-2/CD14): enhanced
IL-8 release (% of LPS control) at 0.5 µM (human PBMC): 27.3%

Compound: CCOC(=O)c1nc(Nc2cc(Oc3ccccc3Br)cc([N+](=O)[O-])c2)c2ccccc2n1 [Compound 1g, Ethyl 4-((3-(2-bromophenoxy)-5-nitrophenyl)amino)quinazoline-2-carboxylate]
HepG2 MT (HepG2 cells): 90.8
Activation of transgenic human TLR4/MD-2 complex relative to mouse TLR4/MD-2 (human TLR4/MD-2): to a greater extent
hTLR4 0.5 μM (TLR4/MD-2/CD14): 79.0
Activity relative to compound 1a (SAR in words) (TLR4/MD-2/CD14): enhanced
IL-8 release (% of LPS control) at 0.5 µM (human PBMC): 35.6%

Compound: CCOC(=O)c1nc(Nc2cc(Oc3ccccc3I)cc([N+](=O)[O-])c2)c2ccccc2n1 [Compound 1h, Ethyl 4-((3-(2-iodophenoxy)-5-nitrophenyl)amino)quinazoline-2-carboxylate]
HepG2 MT (HepG2 cells): 93.8
hTLR4 0.5 μM (TLR4/MD-2/CD14): 65.5
Activity relative to compound 1a (SAR in words) (TLR4/MD-2/CD14): enhanced
IL-8 release (% of LPS control) at 0.5 µM (human PBMC): 34.2%

Compound: CCOC(=O)c1nc(Nc2cc(Oc3ccccc3C(F)(F)F)cc([N+](=O)[O-])c2)c2ccccc2n1 [Compound 1i, Ethyl 4-((3-nitro-5-(2-(trifluoromethyl)phenoxy)phenyl)amino)quinazoline-2-carboxylate]
HepG2 MT (HepG2 cells): 67.1
hTLR4 0.5 μM (TLR4/MD-2/CD14): 58.7
IL-8 release (% of LPS control) at 0.5 µM (human PBMC): 26.5%

Compound: CCOC(=O)c1nc(Nc2cc(Oc3c(C)cccc3C)cc([N+](=O)[O-])c2)c2ccccc2n1 [Compound 1j, Ethyl 4-((3-(2,6-dimethylphenoxy)-5-nitrophenyl)amino)quinazoline-2-carboxylate]
HepG2 MT (HepG2 cells): 106.3
hTLR4 0.5 μM (TLR4/MD-2/CD14): 0.6
IL-8 release (% of LPS control) at 0.5 µM (human PBMC): 0%

Compound: CCOC(=O)c1nc(Nc2cc(Oc3ccc4ccccc4c3)cc([N+](=O)[O-])c2)c2ccccc2n1 [Compound 1k, Ethyl 4-((3-(naphthalen-2-yloxy)-5-nitrophenyl)amino)quinazoline-2-carboxylate]
HepG2 MT (HepG2 cells): 111.4
hTLR4 0.5 μM (TLR4/MD-2/CD14): 0.8
Activity relative to compound 1a (SAR in words) (TLR4/MD-2/CD14): loss of activity
IL-8 release (% of LPS control) at 0.5 µM (human PBMC): 0%

— patent publication US20150132342A1, “NOVEL IMMUNE ACTIVATORS: SUBSTITUTE 4-AMINOQUINAZOLINES” (The Regents of the University of California, priority 2013, published 2015)
